The text below walks through data of PMC11359831, “Stepwise Structural Simplification of the Dihydroxyanthraquinone Moiety of a Multitarget Rhein-Based Anti-Alzheimer Lead to Improve Drug Metabolism and Pharmacokinetic Properties” (Pharmaceutics, 2024).

The target in data set [1] is T1, human recombinant BACE-1 (hBACE-1) (Homo sapiens, UniProt P56817).
T1 construct: purchased Invitrogen, Carlsbad, CA, USA
The experiment in a line: In vitro hBACE-1 inhibition (fluorometric method). In kind it is biochemical. On the procedure:
The inhibition of human recombinant BACE-1 (hBACE-1) (Invitrogen, Carlsbad, CA, USA) by hybrids 4–7 was evaluated by a fluorometric method. The substrate (Panvera peptide, 10 μL, 250 nM final concentration) was added to a solution (10 μL) of hybrids 4–7 or buffer in control wells (20 mM sodium acetate at pH 4.5, with 0.1% w/v CHAPS). After the addition of the enzyme (10 μL, 12.91 mU), the assay solution was incubated for 1 h at 37 °C. Thereafter, STOP solution (10 μL, 2.5 M sodium acetate) was added and the fluorescence was read at […]. The DMSO concentration in the assay solution was kept <5% (v/v) to ensure no significant loss of BACE-1 activity. The background signal, determined in control wells with all the components of the assay but BACE-1, was subtracted. The fluorescence intensities in the presence of increasing concentrations or in the absence of hybrids 4–7 were compared to calculate the percent of enzyme inhibition produced by the compounds, by applying the following expression: 100 − (IFi/IFo × 100), in which IFi and IFo are the fluorescence intensities in the presence and in the absence of the compounds, respectively. Additionally, the IC50 values were calculated (GraphPad Prism 4.03 software, GraphPad Software Inc., San Diego, CA, USA) and are given as the mean ± SEM of at least two experiments, each performed in triplicate.

In the next data set the target is T2, Aβ42 aggregation (Homo sapiens, UniProt P05067).
T2 construct: expressed in transfected cells; host or cells: E. coli BL21 (DE3) bearing pET28a-Aβ42
T2 sequence (P05067 672-713): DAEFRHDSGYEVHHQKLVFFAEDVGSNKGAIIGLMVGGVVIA
The experiment in a line: Aβ42 aggregation inhibition in genetically modified E. coli cells (Th-S fluorescence). In kind it is cell-based, Escherichia coli. The conditions noted are these: live E. coli cells overexpressing Aβ42. On the procedure: For Aβ42 overexpression, M9 minimal medium (10 mL) containing kanamycin (50 μg/mL) was added to a colony of E. coli BL21 (DE3) competent cells, bearing the pET28a plasmid (Novagen, Inc., Madison, WI, USA), which contains the DNA sequence encoding for Aβ42. After overnight culture, the volume necessary to obtain a 1:500 dilution was added to fresh M9 minimal medium that contained kanamycin (50 μg/mL) and thioflavin-S (Th-S, 250 µM).
(§1) For Aβ42 overexpression, the corresponding E. coli cell cultures were kept growing overnight (37 °C; 250 rpm) until they reached an OD600 = 0.6. These cultures (980 μL) were added to a mixture of 10 μL of a solution of the new compounds in DMSO and 10 μL of 100 mM isopropyl 1-thio-β-D-galactopyranoside (IPTG), to reach a final compound concentration of 10 μM. The same procedure was used for tau overexpression but employing 10 μL of 25% arabinose instead of IPTG. The resulting E. coli cultures were kept growing overnight (37 °C; 1400 rpm) using an Eppendorf Thermomixer (Hamburg, Germany). To prepare a negative control for the assay, showing the highest amount of the amyloidogenic protein, the same quantity of DMSO, without the compounds to be tested, was added to the sample. With the double purpose of obtaining positive controls devoid of the amyloidogenic proteins and assessing the potential intrinsic toxicity of the new compounds, we also prepared samples that had not been treated with either IPTG or arabinose (non-induced samples).
(§2) To assess the inhibitory activity of compounds 4–7 on Aβ42 and tau aggregation within E. coli cells, a fluorescence assay was employed, using Th-S ([…] stock solution, T1892, Sigma, St. Louis, MO, USA) in double-distilled water (Milli-Q system, Millipore, Bay City, MI, USA) and an Aminco Bowman Series 2 luminescence spectrophotometer (Aminco-Bowman AB2, SLM Aminco, Rochester, NY, USA), working at 25 °C in the wavelength range of 460–600 nm, with λex = 445 nm, slit widths of 4 nm, and λem = 485 nm. The results are given as the average of nine independent experiments, each performed in triplicate.

A further data set deals with T3, tau aggregation (Homo sapiens, UniProt P10636).
T3 construct: expressed in transfected cells; host or cells: E. coli BL21 (DE3) bearing pTARA and pRKT42
T3 sequence (P10636 other isoform, or with tags, fused parts or gaps): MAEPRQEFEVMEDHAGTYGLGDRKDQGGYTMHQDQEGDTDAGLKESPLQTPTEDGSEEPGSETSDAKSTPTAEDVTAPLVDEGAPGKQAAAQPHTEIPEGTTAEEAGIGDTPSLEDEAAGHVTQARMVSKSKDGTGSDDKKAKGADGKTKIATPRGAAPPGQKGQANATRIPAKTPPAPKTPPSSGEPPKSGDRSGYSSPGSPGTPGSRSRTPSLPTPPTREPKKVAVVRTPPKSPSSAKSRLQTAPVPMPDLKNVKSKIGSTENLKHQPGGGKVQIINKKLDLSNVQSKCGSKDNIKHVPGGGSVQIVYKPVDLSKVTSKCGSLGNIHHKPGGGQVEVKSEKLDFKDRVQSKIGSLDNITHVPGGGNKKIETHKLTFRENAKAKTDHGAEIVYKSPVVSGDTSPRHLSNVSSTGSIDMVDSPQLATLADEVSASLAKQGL
Kind of data set: Tau aggregation inhibition in genetically modified E. coli cells (Th-S fluorescence). In kind it is cell-based, Escherichia coli. The conditions noted are these: live E. coli cells overexpressing tau. As for the experimental part: For tau overexpression, M9 minimal medium (10 mL) containing glucose (0.5%), ampicillin (50 μg/mL), chloramphenicol (12.5 μg/mL), and E. coli BL21 (DE3) cells bearing the pTARA plasmid, which carries the RNA polymerase gene of the T7 phage (T7RP) under control of the PBAD promoter, and subsequent transformation with the pRKT42 vector were used instead. In this case, the overnight culture for a 1:500 dilution was added to fresh M9 minimal medium containing glucose (0.5%), chloramphenicol (12.5 μg/mL), ampicillin (50 μg/mL), and Th-S (250 µM).
as §1, §2

A short description of another data set: physchem. The conditions noted are these: 37 °C, aqueous buffer, kinetic from dmso stock.
For data set [2] the following is noted: PAMPA-BBB, drugs used for assay validation. A general note: In PAMPA a lipid-coated filter parts donor from acceptor wells.
Procedure: The parallel artificial membrane permeability assay for the blood–brain barrier (PAMPA-BBB) [41] was used to assess the in vitro brain permeability of the new compounds. For the assay, the compounds were dissolved in mixtures of PBS and ethanol (70:30).

In brackets after ≈: the same amount, converted by molar mass.

T1 sequence (P56817 46-501): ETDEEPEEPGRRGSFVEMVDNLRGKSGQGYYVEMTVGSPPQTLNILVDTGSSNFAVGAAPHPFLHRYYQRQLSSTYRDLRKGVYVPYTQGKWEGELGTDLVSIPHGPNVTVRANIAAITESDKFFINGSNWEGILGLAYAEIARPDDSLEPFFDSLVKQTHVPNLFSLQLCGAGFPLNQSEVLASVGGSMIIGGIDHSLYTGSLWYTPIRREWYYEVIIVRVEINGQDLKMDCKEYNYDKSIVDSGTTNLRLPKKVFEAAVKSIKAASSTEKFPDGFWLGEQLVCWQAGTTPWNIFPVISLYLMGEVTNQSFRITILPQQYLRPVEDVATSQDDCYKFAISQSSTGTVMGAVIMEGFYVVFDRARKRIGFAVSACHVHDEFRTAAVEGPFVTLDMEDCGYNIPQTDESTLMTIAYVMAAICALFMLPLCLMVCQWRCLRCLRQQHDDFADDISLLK
Procedure for physchem: The resulting solutions were incubated at 37 °C. After 2 h incubation, the samples were read using a BMG LABTECH NEPHELOstar Plus laser nephelometer (Ortenberg, Germany).

As to `O=c1c(O)c(-c2cc(O)c(O)c(O)c2)oc2cc(O)cc(O)c12` [Myr, myricetin, reference compound], the IC50 in data set [1] amounted to 4.18 ± 0.5 µM.

As to `O=C(NCCCCCCCCNc1c2c(nc3cc(Cl)ccc13)CCCC2)c1ccc2nc(-c3ccc(Cl)cc3)c3c(c2c1)NCCC3` [DP128, reference compound], the “Aβ42 Aggregation % inh. @10 µM” value on Aβ42 aggregation came to 78.1 ± 1.7%. The “Tau Aggregation % inh. @10 µM” value at tau aggregation came out at 69.9 ± 0.7%.

In turn, `C[C@H]1O[C@@H](O[C@H]2[C@@H](O)C[C@H](O[C@H]3[C@@H](O)C[C@H](O[C@H]4CC[C@@]5(C)[C@H](CC[C@@H]6[C@@H]5C[C@@H](O)[C@]5(C)[C@@H](C7=CC(=O)OC7)CC[C@]65O)C4)O[C@@H]3C)O[C@@H]2C)C[C@H](O)[C@@H]1O` [digoxin, reference compound] gave a solubility at 2 h in the data set “physchem” of 86.3 µM (≈ 67.4 µg/mL).

On to `CN1C(C(=O)Nc2ccccn2)=C(O)c2ccccc2S1(=O)=O` [Piroxicam, reference compound], for which the “Experimental Pe Value” in data set [2] is reported as 2.2 ± 0.1 10^−6 cm s^−1.

In turn, `CC(=O)[C@H]1CC[C@H]2[C@@H]3CCC4=CC(=O)CC[C@]4(C)[C@H]3CC[C@]12C` [Progesterone, reference compound] yielded a solubility at 2 h in “physchem” (Solubility) of 5.9 µM (≈ 1.86 µg/mL).

By IC50 is commonly meant the concentration that gives 50% inhibition. Broadly, the solubility is the dissolved amount per volume that the medium holds. Low values mean little dissolved substance, high ones much dissolved substance.
